In one assay the test system is lymph node cells. Nature of the assay: ovalbumin-induced proliferation in murine lymph cells (FIG. 13). Type of assay: cell-based, Balb/C mice. As to conditions: Mus musculus, OVA 200 μg/ml. An excerpt: This example illustrates effects of the inventive compounds on ovalbumin-induced proliferation in murine lymph cells. Lymphnode cells contain a mixture of lymphoid cells: T-cells, B-cells and macrophages. Although proliferating cells in this assay are T-cells, the response obtained depends on type of antigen-presenting cell (e.g., macrophages) as well as elaboration of various immunoregulatory cytokines. Thus, this assay serves as a good model for T-cell mediated responses and as a valuable screening tool in identifying compounds useful in immunosuppressive therapeutic applications.
Murine T-cells proliferate in vitro in response to a soluble protein antigen if first primed with a corresponding antigen in vivo. This in vivo priming usually involves emulsifying the antigen in complete Freunds adjuvant and injecting this preparation into an appropriate site on a mouse. In this assay the antigen employed was chicken ovalbumin(OVA). Following emulsification in Freund's complete adjuvant, 50 μg of OVA were injected into both hind footpads of adult Balb/C mice. Fourteen days later the draining lymph nodes(popliteal) were removed and a single cell suspension was prepared in RPMI-1640 (10%FCS) medium. Two hundred thousand lymph node cells are then plated into wells of flat-bottom 96-well plates. Inventive compouds nos. 1410, 1553 (racemic), 1553(S), 1560 and 1565 were added to appropriate wells at various concentrations. OVA, at a final concentration of 200 μg/ml, was added to appropriate wells. Positive and negative controls were established on each plate, all assay variables being set up in quadruplicate.
The plates were incubated in a humidified, 5% CO2 incubator for 5 days. On the fifth day, 1 μCi of tritiated thymidine was added to each well and the plates were incubated for an additional 4 hours. The plates were harvested and the incorporation of 3H-TdR was determined in a liquid scintillation counter. The CPM data was then used to calculate experimental IC50 values for the compounds tested. Again, IC50 is defined as that concentration of compound resulting in 50% inhibition of 3H-TdR incorporation of the positive control.

Another assay relates to thymocytes. Nature of the assay: murine thymocyte proliferation assay co-stimulated by ConA and IL-2 (FIGS. 7A-7E). Type of assay: cell-based, Balb/C mice. The conditions noted are these: Mus musculus.
In a further assay the test system is murine splenocytes. In words: murine splenocyte proliferation co-stimulated by anti-mu and IL-4 (FIG. 11). The class given is cell-based. The conditions noted are these: Mus musculus, anti-mu / IL-4 12.5 ng/ml. Here is the method: This example illustrates inhibitive effects of compounds nos. 1439, 1553S, 1560 and 1565 on murine splenocyte proliferation co-stimulated by anti-mu ([…]) and interleukin-4 (IL-4, 12.5 ng/ml). This in vitro assay, described above, is indicative of immune-suppressive/autoimmune treatment assay emphasizing humoral or B cell immune response. This assays are a predictive model for treatment or prevention of autoimmune diseases, such as diabetes, lupus, arthritis, and the like. The assay measures immunosuppressive activity of a drug at the B cell level. Spleens from adult mice contain immature B cells that express surface IgM. Cross-linking the surface IgM with an anti-mu antibody results in B cell proliferation. Additionally, this activation results in an increased expression of interleukin-4 receptors(IL-4R) on the surface of such cells. IL-4 acts as a growth factor for B cells and will increase the amount of proliferation induced by anti-mu.
A mixture of anti-mu and murine IL-4 is added to murine splenocytes to cause their proliferation. Mice spleens are obtained from adult mice and a single cell suspension is prepared in RPMI 1640 medium supplemented with 10% FCS. Cells (200,000) are plated into flat-bottomed wells and pre-incubated for 1-2 hours with various concentrations of inventive compound or PBS if it is a control. A mixture of anti-mu and murine is added to the wells at a final concentration of 5 μg/ml anti-mu and 12.5 ng/ml IL-4 and plates are incubated for three days. Proliferation is determined on the third day with a pulse of tritiated thymidine. The IC50 concentration of a particular drug is the concentration of drug that results in a 50% inhibition of the proliferation obtained from the positive control.

Assay [1] deals with normal human bone marrow stromal cells (MSC). In words: human bone marrow stromal cell (MSC) proliferation in response to PDGF BB and IL-1α. The class given is cell-based. As to conditions: Table III, PDGF BB 50 ng/ml and IL-1α 10 ng/ml. The essentials:
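Serum-starved (20–24 h) normal human bone marrow stromal cells preincubated 1 h with compound, then stimulated with PDGF BB (50 ng/ml) and IL-1α (10 ng/ml) plus 3H-thymidine for 24 h. Proliferation read as 3H-thymidine incorporation into DNA; IC50 derived per compound.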

This is an account of results in patent US5866576A, “Epoxide-containing compounds” (Cell Therapeutics, Inc., priority 1997, dated 1999).

Molecules are shown by their SMILES.

In general, IC50 refers to the concentration needed to halve the response being measured. The low end stands for inhibition by little substance, the high end for a need for much substance.

For the molecule `Cn1cnc2c1c(=O)n(CCCCCCCC1CO1)c(=O)n2C` (centres unmarked) [Compound 1560, 1-(8,9-Oxidononyl)-3,7-dimethylxanthine], the concentration for half-maximal inhibition (IC50) in the assay with lymph node cells came out at 34 µM; in the assay on thymocytes (FIG. 7C) it was 22 µM; in the assay with thymocytes (FIGS. 7D and 7E) it was 14 µM; with murine splenocytes, 29 µM; in assay [1], 6.6 µM.
